By IC50 is commonly meant the point on the concentration scale where inhibition reaches its midpoint.

Bounds are passed on as bounds.

For the experiment, the target named is human TRPV3 receptors (Homo sapiens (Human), UniProt Q8NET8). As to the kind of experiment: Calcium flux assay (FLIPR TETRA), inhibition of the 2-APB response. Conditions: recombinant HEK293 cells stably expressing TRPV3, Calcium-4 dye, 2-APB at its EC80. The experiment is classed as cell-based. In a few lines: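 HEK293 cells stably expressing human and mouse TRPV3, plated the day before and dye-loaded 90-120 min in the dark, read on FLIPR Tetra. Peak fluorescence increase over baseline was expressed as percent of the maximal 2-APB response without compound.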
human TRPV3 receptors, sequence (Q8NET8 whole entry): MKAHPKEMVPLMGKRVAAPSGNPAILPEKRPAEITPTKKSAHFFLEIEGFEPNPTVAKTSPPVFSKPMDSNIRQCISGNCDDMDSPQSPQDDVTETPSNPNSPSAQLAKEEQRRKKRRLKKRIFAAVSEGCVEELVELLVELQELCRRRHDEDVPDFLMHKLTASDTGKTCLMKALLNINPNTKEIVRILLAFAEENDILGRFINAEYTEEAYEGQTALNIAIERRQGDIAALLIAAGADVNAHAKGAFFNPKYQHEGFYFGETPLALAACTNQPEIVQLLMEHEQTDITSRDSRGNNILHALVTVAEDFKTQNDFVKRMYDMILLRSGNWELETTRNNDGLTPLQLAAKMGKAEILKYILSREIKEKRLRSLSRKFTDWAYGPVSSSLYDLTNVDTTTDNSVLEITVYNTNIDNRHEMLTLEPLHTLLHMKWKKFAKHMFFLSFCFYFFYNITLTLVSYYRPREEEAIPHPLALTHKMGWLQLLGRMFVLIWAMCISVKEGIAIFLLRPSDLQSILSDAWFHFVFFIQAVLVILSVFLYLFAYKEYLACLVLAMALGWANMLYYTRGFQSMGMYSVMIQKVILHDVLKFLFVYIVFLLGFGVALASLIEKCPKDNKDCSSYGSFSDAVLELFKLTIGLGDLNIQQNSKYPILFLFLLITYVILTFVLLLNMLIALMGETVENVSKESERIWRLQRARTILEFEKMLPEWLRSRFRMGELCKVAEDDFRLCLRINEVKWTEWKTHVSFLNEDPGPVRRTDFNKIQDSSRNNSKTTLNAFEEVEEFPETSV
For orientation: Calcium assays in cells follow changes in intracellular calcium, usually with a dye or a luminescent sensor.
As for `CC[C@H](CO)NCc1nc(-c2ccc(C(F)(F)F)nc2)ccc1F` [Example 78, (2R)-2-({[5-fluoro-6′-(trifluoromethyl)-2,3′-bipyridin-6-yl]methyl}amino)butan-1-ol], the half-inhibitory concentration (IC50) turned out to be 10200 nM.
The same measure for `OCC1(NCc2cccc(-c3ccc(C(F)(F)F)cc3C(F)(F)F)n2)CCCC1` [Example 271, {1-[({6-[2,4-bis(trifluoromethyl)phenyl]pyridin-2-yl}methyl)amino]cyclopentyl}methano 1]: 580 nM.
Turning to `CCCN(CCC)C(=O)c1ccc(-c2ccc(F)c(CN[C@@H](CO)C(C)C)n2)cc1` [Example 277, 4-[5-fluoro-6-({[(2R)-1-hydroxy-3-methylbutan-2-yl]amino}methyl)pyridin-2-yl]-N,N-dipropylbenzamide], the IC50 was determined as 650 nM.
The same measure for `CC(C)[C@H](CO)NCc1cccc(C#Cc2ccccc2F)n1` [Example 285, (2R)-2-[({6-[(2-fluorophenyl)ethynyl]pyridin-2-yl}methyl)amino]-3-methylbutan-1-ol]: 990 nM; for `OC(CNCc1ccnc(-c2ccc(C(F)(F)F)cc2)n1)C(F)(F)F` (centres unmarked) [Example 179, 1,1,1-trifluoro-3-[({2-[4-(trifluoromethyl)phenyl]pyrimidin-4-yl}methyl)amino]propan-2-ol]: more than 20000 nM; for `CC(C)[C@H](CO)NCc1nc(-c2ccnc(C(F)(F)F)c2)ccc1F` [Example 31, (2R)-2-({[5-fluoro-2′-(trifluoromethyl)-2,4′-bipyridin-6-yl]methyl}amino)-3-methylbutan-1-ol]: 2190 nM.
For the molecule `C=C(c1ccc(F)cc1)c1ccc(F)c(CN[C@@H](CO)C(C)C)n1` [Example 125, (2R)-2-[({3-fluoro-6-[1-(4-fluorophenyl)ethenyl]pyridin-2-yl}methyl)amino]-3-methylbutan-1-ol], the half-inhibitory concentration (IC50) amounted to 1630 nM.
The same measure for `CC(C)[C@H](CO)NCc1nc(-c2cccc(N3CCOCC3)c2)ccc1F` [Example 44, (2R)-2-[({3-fluoro-6-[3-(morpholin-4-yl)phenyl]pyridin-2-yl}methyl)amino]-3-methylbutan-1-ol]: 830 nM; for `CC(C)[C@H](CO)NCc1nc(C#CCC2CCCCC2)ccc1F` [Example 236, (2R)-2-({[6-(3-cyclohexylprop-1-yn-1-yl)-3-fluoropyridin-2-yl]methyl}amino)-3-methylbutan-1-ol]: 980 nM; for `CC(C)[C@H](CO)NCc1nc(-c2cnc(OCC(F)(F)F)nc2)ccc1F` [Example 114, (2R)-2-[({3-fluoro-6-[2-(2,2,2-trifluoroethoxy)pyrimidin-5-yl]pyridin-2-yl}methyl)amino]-3-methylbutan-1-ol]: 2330 nM.
Take `CC(C)[C@H](CO)NCc1nc(-c2cnc(N(C)C)nc2)ccc1F` [Example 261, (2R)-2-[({6-[2-(dimethylamino)pyrimidin-5-yl]-3-fluoropyridin-2-yl}methyl)amino]-3-methylbutan-1-ol]: the IC50 was 750 nM.
The same measure for `CC(C)[C@@H](CO)NCc1nc(-c2ccc(C(F)(F)F)cc2)ccc1F` [Example 30, (2S)-2-[({3-fluoro-6-[4-(trifluoromethyl)phenyl]pyridin-2-yl}methyl)amino]-3-methylbutan-1-ol]: more than 20000 nM; for `CC(C)[C@H](CO)NCc1cccc(C#Cc2ccc(F)cc2)n1` [Example 264, (2R)-2-[({6-[(4-fluorophenyl)ethynyl]pyridin-2-yl}methyl)amino]-3-methylbutan-1-ol]: 170 nM; for `CC(C)[C@H](CO)NCc1nc(-c2ccoc2)ccc1F` [Example 251, (2R)-2-({[3-fluoro-6-(furan-3-yl)pyridin-2-yl]methyl}amino)-3-methylbutan-1-ol]: 580 nM.
As for `CC(C)[C@H](CO)NCc1nc(-c2cc(Cl)cc(Cl)c2)ccc1F` [Example 21, (2R)-2-({[6-(3,5-dichlorophenyl)-3-fluoropyridin-2-yl]methyl}amino)-3-methylbutan-1-ol], the concentration for half-maximal inhibition (IC50) was determined as 3300 nM.
Consider `OCC1(NCc2ccnc(-c3ccc(C(F)(F)F)cc3)n2)CCCCC1` [Example 134, {1-[({2-[4-(trifluoromethyl)phenyl]pyrimidin-4-yl}methyl)amino]cyclohexyl}methanol], for which the IC50 turned out to be 11000 nM.
The same measure for `CC(=O)c1cccc(-c2ccc(F)c(CN[C@@H](CO)C(C)C)n2)c1F` [Example 37, 1-{2-fluoro-3-[5-fluoro-6-({[(2R)-1-hydroxy-3-methylbutan-2-yl]amino}methyl)pyridin-2-yl]phenyl}ethanone]: 1190 nM; for `OCC[C@@H](NCc1ccnc(-c2ccc(C(F)(F)F)cc2)n1)c1ccccc1` [Example 162, (3R)-3-phenyl-3-[({2-[4-(trifluoromethyl)phenyl]pyrimidin-4-yl}methyl)amino]propan-1-ol]: more than 20000 nM.
Next, `CC(C)[C@H](CO)NCc1nc(-c2cnc(C(F)(F)F)nc2)ccc1F` [Example 113, (2R)-2-[({3-fluoro-6-[2-(trifluoromethyl)pyrimidin-5-yl]pyridin-2-yl}methyl)amino]-3-methylbutan-1-ol]: 2650 nM; `CCC(O)CNCc1ccnc(-c2ccc(C(F)(F)F)cc2)n1` (centres unmarked) [Example 181, 1-[({2-[4-(trifluoromethyl)phenyl]pyrimidin-4-yl}methyl)amino]butan-2-ol]: more than 20000 nM; `CC(C)[C@H](CO)NCc1ccnc(-c2ccc(C(F)(F)F)cc2)n1` [Example 91, (2R)-3-methyl-2-[({2-[4-(trifluoromethyl)phenyl]pyrimidin-4-yl}methyl)amino]butan-1-ol]: more than 20000 nM.
In the case of `COc1cc(-c2ccc(F)c(CN[C@@H](CO)C(C)C)n2)cc(F)c1F` [Example 283, (2R)-2-({[6-(3,4-difluoro-5-methoxyphenyl)-3-fluoropyridin-2-yl]methyl}amino)-3-methylbutan-1-ol], the IC50 is 260 nM.
Next, `CC(C)[C@H](CO)NCc1nc(-c2cc(F)c(F)cc2F)ccc1F` [Example 246, (2R)-2-({[3-fluoro-6-(2,4,5-trifluorophenyl)pyridin-2-yl]methyl}amino)-3-methylbutan-1-ol]: 160 nM; `CC(C)[C@@H](NCc1nc(-c2ccc(C(F)(F)F)cc2)ccc1F)C(N)=O` [Example 116, (R)-2-((3-fluoro-6-(4-(trifluoromethyl)phenyl)pyridin-2-yl)methylamino)-3-methylbutanamide]: more than 20000 nM.
Turning to `OC[C@H](NCc1ccnc(-c2ccc(C(F)(F)F)cc2)n1)C1CC1` [Example 145, (2R)-2-cyclopropyl-2-[({2-[4-(trifluoromethyl)phenyl]pyrimidin-4-yl}methyl)amino]ethanol], the IC50 was 3050 nM.
The same measure for `CC(C)[C@H](CO)NCc1nc(/C=C/c2cccc(F)c2)ccc1F` [Example 233, (2R)-2-[({3-fluoro-6-[(E)-2-(3-fluorophenyl)ethenyl]pyridin-2-yl}methyl)amino]-3-methylbutan-1-ol]: 380 nM; for `CC(C)[C@H](CO)NCc1cc(C(F)(F)F)cc(-c2ccc(C(F)(F)F)nc2)n1` [Example 118, (2R)-2-({[4,6′-bis(trifluoromethyl)-2,3′-bipyridin-6-yl]methyl}amino)-3-methylbutan-1-ol]: more than 20000 nM; for `CC(C)[C@H](CO)NCc1nc(-c2cc(F)c(F)c(F)c2)ccc1F` [Example 244, (2R)-2-({[3-fluoro-6-(3,4,5-trifluorophenyl)pyridin-2-yl]methyl}amino)-3-methylbutan-1-ol]: 160 nM.
As to `O[C@H]1CCCC[C@@H]1NCc1nc(-c2ccc(C(F)(F)F)nc2)ccc1F` [Example 122, (1S,2S)-2-({[5-fluoro-6′-(trifluoromethyl)-2,3′-bipyridin-6-yl]methyl}amino)cyclohexanol], the concentration for half-maximal inhibition (IC50) turned out to be 3940 nM.
Next, `Cc1ccc(-c2ccc(F)c(CN[C@@H](CO)C(C)C)n2)s1` [Example 243, (2R)-2-({[3-fluoro-6-(5-methylthiophen-2-yl)pyridin-2-yl]methyl}amino)-3-methylbutan-1-ol]: 380 nM; `CCC[C@H](CO)NCc1ccnc(-c2ccc(C(F)(F)F)cc2)n1` [Example 141, (2R)-2-[({2-[4-(trifluoromethyl)phenyl]pyrimidin-4-yl}methyl)amino]pentan-1-ol]: 4900 nM; `OCC1(NCc2nc(-c3ccc(C(F)(F)F)cc3)ccc2F)CCCCC1` [Example 81, {1-[({3-fluoro-6-[4-(trifluoromethyl)phenyl]pyridin-2-yl}methyl)amino]cyclohexyl}methanol]: 680 nM.
The same measure for `CC(C)[C@H](CO)NCc1nc(-c2cncc(Cl)c2)ccc1F` [Example 278, (2R)-2-{[(5′-chloro-5-fluoro-2,3′-bipyridin-6-yl)methyl]amino}-3-methylbutan-1-ol]: 2690 nM.
On to `CC(C)[C@H](CO)NCc1nc(-c2ccc(N3CCN(C)CC3)nc2)ccc1F` [Example 254, (2R)-2-({[5-fluoro-6′-(4-methylpiperazin-1-yl)-2,3′-bipyridin-6-yl]methyl}amino)-3-methylbutan-1-ol], for which the IC50 was more than 20000 nM.
With `CC(C)[C@@H](CO)NCc1cccc(-c2ccc(C(F)(F)F)cc2)n1` [Example 3, (2S)-3-methyl-2-[({6-[4-(trifluoromethyl)phenyl]pyridin-2-yl}methyl)amino]butan-1-ol], the IC50 is 9380 nM.
As for `CC(C)[C@H](CO)NCc1nc(-c2ccc(C(F)(F)F)cn2)ccc1F` [Example 73, (2R)-2-({[5-fluoro-5′-(trifluoromethyl)-2,2′-bipyridin-6-yl]methyl}amino)-3-methylbutan-1-ol], the IC50 came to 140 nM.
The same measure for `C[C@H](O)[C@H](CO)NCc1ccnc(-c2ccc(C(F)(F)F)cc2)n1` [Example 149, (2S,3S)-2-[({2-[4-(trifluoromethyl)phenyl]pyrimidin-4-yl}methyl)amino]butane-1,3-diol]: more than 20000 nM.
For `CC(C)[C@H](CO)NCc1cccc(C#Cc2ccc(F)c(F)c2)n1` [Example 265, (2R)-2-[({6-[(3,4-difluorophenyl)ethynyl]pyridin-2-yl}methyl)amino]-3-methylbutan-1-ol], the IC50 came out at 190 nM.

Values taken from patent US9012651B2, “TRPV3 modulators” (AbbVie Inc., priority 2011, dated 2015).
